This is an account of results in patent US5906930A, “Para-nitrobenzyl esterases with enhanced activity in aqueous and nonaqueous media” (California Institute of Technology, priority 1998, dated 1999).

Experiment [1] concerns the target T1, Bacillus subtilis para-nitrobenzyl esterase variant 3-10C4 (2-19E10 substitutions + L144M), SEQ. ID. NO. 8 (Bacillus subtilis, UniProt P37967, H322R/L144M/M358V/Y370F).
T1 sequence (P37967 1-489 K23L/S59P/K95Q/L144M/N150D/S230A/G242S/K246R/S251A/A291S/H322R/V343A/M358V/Y370F/K390E/L463V): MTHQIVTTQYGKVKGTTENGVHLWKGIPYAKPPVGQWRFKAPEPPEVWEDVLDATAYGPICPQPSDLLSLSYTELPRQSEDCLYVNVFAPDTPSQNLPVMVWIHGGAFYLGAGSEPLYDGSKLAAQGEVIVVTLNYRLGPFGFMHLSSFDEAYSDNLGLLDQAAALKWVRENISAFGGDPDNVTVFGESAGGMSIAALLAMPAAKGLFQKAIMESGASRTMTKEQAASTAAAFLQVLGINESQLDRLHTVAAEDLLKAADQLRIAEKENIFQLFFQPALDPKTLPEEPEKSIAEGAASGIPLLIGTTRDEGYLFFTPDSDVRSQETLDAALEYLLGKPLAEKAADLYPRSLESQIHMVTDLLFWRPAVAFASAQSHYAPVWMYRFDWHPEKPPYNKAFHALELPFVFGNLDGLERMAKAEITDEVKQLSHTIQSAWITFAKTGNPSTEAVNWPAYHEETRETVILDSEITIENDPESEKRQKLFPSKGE
Kind of experiment: Kinetic assays of purified pNB esterase (ester hydrolysis). The experiment is classed as biochemical. Conditions: 0.1M PIPES pH 7.0, 30° C. Here is the method:
Bacteria expressing seven pNB esterases, 0-WT (SEQ. ID. NO. 2), 1-1H9, 2-19E10, 3-10C4, 4-38B9, 4-43E7, and 4-54B9, were grown in one liter cultures and the enzymes were purified. These purified enzymes were assayed for their ability to hydrolyze the different ester substrates in the presence of various concentrations of DMF. FIGS. 8a, b and c show the specific reaction rates on pNPA as a function of pNPA substrate concentration for this series of evolved variants from the four generations of mutagenesis and screening. […] The wild type enzyme outperforms 1-1H9 in purely aqueous buffer (FIG. 8a). The actual screening, however, was performed in the presence of DMF, and in 15 and 30% DMF, 1-1H9 has higher specific activity towards pNPA than wild type (FIGS. 8b and 8c). Similar trends are seen for the remaining variants assayed on this substrate. […] In 30% DMF, wild type drops still further relative to the pNB esterase variants. Variants 4-38B9 and 4-43E7, presumably by, virtue of having been screened in DMF for four rounds of mutagenesis, are the best performers in 30% DMF.
DMF dramatically increases KM while also decreasing kcat. For the LCN substrates, the mutations accumulated during directed evolution mitigate the increased KM. The effects on kcat, however, are more prominent: kcat increases more than 9-fold from wild type to 4-54B9 in 15% DMF, while KM decreases by less than a factor of two on LCN-pNB. […] At substrate concentrations […], increased specific activity will result mainly from improvements in kcat. These improvements are obviously the most useful for enzymes intended to be used for transformations in high substrate concentrations.
(§1) Kinetic assays were performed on three substrates: pNPA, LCN-pNP, and p-nitrobenzyl loracarbef nucleus (LCN-pNB). For pNPA and LCN-pNP substrates, final concentrations varying from 0.0625 mM to 16 mM and 0, 15, and 30% DMF in 0.1M PIPES (Sigma), pH 7.0 were combined with equal volumes of enzyme samples. These samples were mixed simultaneously in a 96 well plate and monitored with the 96 well plate reader. The absorbance values were recorded, linearly regressed, and then used for calculating kinetic parameters. For the LCN-pNB substrate, final concentrations varying from 0.0156 mM to 8.0 mM and 0, 15 and 30% DMF in PIPES, pH 7.0 were combined with enzyme samples in a quartz cuvette and were measured in a spectrophotometer at 289 nm. All assays were measured in triplicate.

Experiment [2] addresses T2, Bacillus subtilis para-nitrobenzyl esterase variant 1-1H9 (incl. Y370F), SEQ. ID. NO. 4 (Bacillus subtilis, UniProt P37967, H322R/Y370F).
T2 sequence (P37967 1-489 K23L/S59P/K95Q/N150D/S230A/G242S/K246R/S251A/A291S/H322R/V343A/Y370F/K390E/L463V): T1 sequence (P37967 1-489 K23L/S59P/K95Q/L144M/N150D/S230A/G242S/K246R/S251A/A291S/H322R/V343A/M358V/Y370F/K390E/L463V) with M144L, V358M
Described as above. The experiment is classed as biochemical. The note with it: 0.1M PIPES pH 7.0, 30° C. Here is the method: Bacteria expressing seven pNB esterases, 0-WT (SEQ. ID. NO. 2), 1-1H9, 2-19E10, 3-10C4, 4-38B9, 4-43E7, and 4-54B9, were grown in one liter cultures and the enzymes were purified. These purified enzymes were assayed for their ability to hydrolyze the different ester substrates in the presence of various concentrations of DMF.
The effects on kcat, however, are more prominent: kcat increases more than 9-fold from wild type to 4-54B9 in 15% DMF, while KM decreases by less than a factor of two on LCN-pNB. […] These improvements are obviously the most useful for enzymes intended to be used for transformations in high substrate concentrations.
as §1

Setting [3] is: substrate p-nitrobenzyl loracarbef nucleus, 0% DMF.
[4] abbreviates: substrate p-nitrobenzyl loracarbef nucleus, 15% DMF.
The mark [5] stands for this setting: substrate p-nitrophenyl loracarbef nucleus, 0% DMF.
Where [6] appears, read: substrate p-nitrophenyl loracarbef nucleus, 15% DMF.
The mark [7] stands for this setting: substrate p-nitrophenyl loracarbef nucleus, 30% DMF.

Structures are written as SMILES. Positions count from the first letter of the chain named.

With `NC1C(=O)N2C(C(=O)OCc3ccc([N+](=O)[O-])cc3)=C(Cl)CCC12` (stereo not shown) [p-nitrobenzyl loracarbef nucleus], the kcat in experiment [1] (setting [3]) is reported as 6.53; in experiment [1] (setting [4]), 1.62; in experiment [2] (setting [3]) it was 1.94; in experiment [2] (setting [4]), 0.69.

`NC1C(=O)N2C(C(=O)Oc3ccc([N+](=O)[O-])cc3)=C(Cl)CCC12` (stereo not shown) [p-nitrophenyl loracarbef nucleus]: the kcat in experiment [1] (setting [5]) is 0.35; in experiment [1] (setting [6]), 0.21; in experiment [1] (setting [7]), 0.044; in experiment [2] (setting [5]), 0.08; in experiment [2] (setting [6]), 0.07; in experiment [2] (setting [7]), 0.021.
